What all share (test): biochemical
Holding throughout (parameters): KINOMEscan active-site competition binding, percent of control (100 = no competition)
Conditions in all cases: competition binding, percent control

Assay [1] has as its target T1, ABL1(T315I)-nonphosphorylated (Homo sapiens, UniProt P00519, T315I).
T1 construct: nonphosphorylated
The source says:
(§1) Given the potential for the use of LIMK inhibitors as cancer chemotherapeutics, a high-throughput drug discovery and medicinal chemistry program was undertaken. Details of the screening methodology and description of initial hit matter were described in [38]. […] Details of their chemical synthesis are described in Charles et al.. […] These and additional physiochemical parameters are in Supplemental Table 5. […] Kinases inhibited >25% to 50% have yellow circles, 51% to 75% have orange circles, and >76% have red circles. In each case, the size of the circle is proportional to percentage inhibition. LIMK1 and LIMK2 positions are indicated in blue. Illustration reproduced courtesy of Cell Signaling Technology, Inc. (www.cellsignal.com). B. CRT0105950 structure and kinome selectivity mapping as described above. C.

A further assay concerns the target ACVR1B (Homo sapiens, UniProt P36896).
Source text: as §1

Another assay has as its target T2, ASK1 (Homo sapiens, UniProt Q99683).
T2 construct: gene MAP3K5
Source text: as §1

The next assay addresses BMPR1B (Homo sapiens, UniProt O00238).
Source text: as §1

The next assay concerns the target T3, CDK11 (Homo sapiens, UniProt Q9BWU1).
T3 construct: gene CDK19
Source text: as §1

For a further assay, the target named is T4, CDK4-cyclinD1 (Homo sapiens, UniProt P11802).
T4 construct: cyclinD1
Source text: as §1

For another assay, the target named is CDKL5 (Homo sapiens, UniProt O76039).
Source text: as §1

The target in the next assay is CLK2 (Homo sapiens, UniProt P49760).
Source text: as §1

A further assay deals with CSNK1A1 (Homo sapiens, UniProt P48729).
Source text: as §1

A further assay deals with T5, CTK (Homo sapiens, UniProt P42679).
T5 construct: gene MATK
Source text: as §1

The next assay concerns the target EPHA3 (Homo sapiens, UniProt P29320).
Source text: as §1

A further assay concerns the target EPHA6 (Homo sapiens, UniProt Q9UF33).
Source text: as §1

Another assay concerns the target FGFR3(G697C) (Homo sapiens, UniProt P22607, G697C).
Source text: as §1

The target in the next assay is FRK (Homo sapiens, UniProt P42685).
Source text: as §1

The next assay concerns the target GRK7 (Homo sapiens, UniProt Q8WTQ7).
Source text: as §1

The target of a further assay is T6, ICK (Homo sapiens, UniProt Q9UPZ9).
T6 construct: gene CILK1
Source text: as §1

The next assay has as its target KIT(D816H) (Homo sapiens, UniProt P10721, D816H).
Source text: as §1

The next assay has as its target MYLK2 (Homo sapiens, UniProt Q9H1R3).
Source text: as §1

The target in a further assay is T7, PRKR (Homo sapiens, UniProt P19525).
T7 construct: gene EIF2AK2
Source text: as §1

The target of another assay is RET(V804M) (Homo sapiens, UniProt P07949, V804M).
Source text: as §1

In a further assay the target is ROS1 (Homo sapiens, UniProt P08922).
Source text: as §1

In assay [2] the target is T8, RSK2(Kin.Dom.1-N-terminal) (Homo sapiens, UniProt P51812).
T8 construct: gene RPS6KA3; Kin.Dom.1-N-terminal
Source text: as §1

Another assay deals with SNRK (Homo sapiens, UniProt Q9NRH2).
Source text: as §1

The structures appear in SMILES notation.

Chain of SNRK (Q9NRH2 whole entry): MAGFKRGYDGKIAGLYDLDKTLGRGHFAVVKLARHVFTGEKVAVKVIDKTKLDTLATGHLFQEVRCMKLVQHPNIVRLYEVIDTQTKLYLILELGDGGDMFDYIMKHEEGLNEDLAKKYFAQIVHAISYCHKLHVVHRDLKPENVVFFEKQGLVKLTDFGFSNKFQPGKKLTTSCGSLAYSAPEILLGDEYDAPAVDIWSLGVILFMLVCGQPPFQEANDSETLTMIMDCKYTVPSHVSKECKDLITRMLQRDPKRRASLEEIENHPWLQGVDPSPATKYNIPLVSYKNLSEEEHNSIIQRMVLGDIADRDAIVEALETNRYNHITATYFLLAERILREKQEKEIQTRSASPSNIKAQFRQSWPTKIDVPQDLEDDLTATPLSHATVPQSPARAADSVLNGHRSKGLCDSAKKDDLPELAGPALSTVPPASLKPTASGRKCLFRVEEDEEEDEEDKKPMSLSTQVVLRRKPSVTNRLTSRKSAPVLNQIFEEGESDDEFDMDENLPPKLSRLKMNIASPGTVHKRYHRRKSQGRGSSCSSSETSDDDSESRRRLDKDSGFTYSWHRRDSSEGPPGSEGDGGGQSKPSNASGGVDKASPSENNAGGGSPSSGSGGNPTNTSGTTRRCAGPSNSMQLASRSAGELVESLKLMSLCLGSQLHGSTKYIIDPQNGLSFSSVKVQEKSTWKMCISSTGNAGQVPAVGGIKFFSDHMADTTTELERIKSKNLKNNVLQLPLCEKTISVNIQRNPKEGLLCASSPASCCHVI
T2 sequence (Q99683 whole entry): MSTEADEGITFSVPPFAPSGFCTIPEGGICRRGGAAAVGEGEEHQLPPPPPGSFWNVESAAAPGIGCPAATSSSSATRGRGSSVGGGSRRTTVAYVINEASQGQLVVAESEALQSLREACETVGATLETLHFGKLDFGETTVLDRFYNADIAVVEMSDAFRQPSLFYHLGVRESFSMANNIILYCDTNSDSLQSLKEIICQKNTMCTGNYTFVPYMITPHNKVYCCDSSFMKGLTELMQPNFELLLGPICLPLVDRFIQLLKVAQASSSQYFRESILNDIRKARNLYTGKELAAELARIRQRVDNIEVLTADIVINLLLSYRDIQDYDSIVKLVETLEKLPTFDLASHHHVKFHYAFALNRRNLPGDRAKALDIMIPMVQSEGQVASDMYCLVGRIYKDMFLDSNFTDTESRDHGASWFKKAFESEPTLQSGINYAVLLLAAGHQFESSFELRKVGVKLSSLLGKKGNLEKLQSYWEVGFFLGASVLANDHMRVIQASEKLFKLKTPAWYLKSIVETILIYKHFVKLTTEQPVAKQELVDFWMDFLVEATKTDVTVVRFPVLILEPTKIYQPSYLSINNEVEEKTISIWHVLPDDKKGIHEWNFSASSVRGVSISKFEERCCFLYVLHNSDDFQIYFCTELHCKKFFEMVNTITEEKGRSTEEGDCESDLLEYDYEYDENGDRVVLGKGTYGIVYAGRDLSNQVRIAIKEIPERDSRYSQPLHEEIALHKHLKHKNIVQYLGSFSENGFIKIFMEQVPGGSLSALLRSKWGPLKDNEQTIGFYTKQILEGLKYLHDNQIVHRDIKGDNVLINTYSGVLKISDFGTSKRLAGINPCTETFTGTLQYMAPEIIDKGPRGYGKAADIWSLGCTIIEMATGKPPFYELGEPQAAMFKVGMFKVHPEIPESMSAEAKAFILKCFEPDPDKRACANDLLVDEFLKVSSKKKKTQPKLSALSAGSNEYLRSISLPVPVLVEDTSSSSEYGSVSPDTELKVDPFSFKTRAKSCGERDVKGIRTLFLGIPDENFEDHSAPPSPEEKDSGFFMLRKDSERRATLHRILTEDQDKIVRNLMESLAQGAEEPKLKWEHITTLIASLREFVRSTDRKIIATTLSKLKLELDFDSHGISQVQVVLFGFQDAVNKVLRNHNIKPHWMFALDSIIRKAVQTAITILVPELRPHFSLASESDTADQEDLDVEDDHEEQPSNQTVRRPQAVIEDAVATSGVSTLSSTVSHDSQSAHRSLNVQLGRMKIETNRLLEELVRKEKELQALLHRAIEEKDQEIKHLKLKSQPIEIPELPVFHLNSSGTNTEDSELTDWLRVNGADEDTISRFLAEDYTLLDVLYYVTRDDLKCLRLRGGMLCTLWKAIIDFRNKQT
T6 sequence (Q9UPZ9 whole entry): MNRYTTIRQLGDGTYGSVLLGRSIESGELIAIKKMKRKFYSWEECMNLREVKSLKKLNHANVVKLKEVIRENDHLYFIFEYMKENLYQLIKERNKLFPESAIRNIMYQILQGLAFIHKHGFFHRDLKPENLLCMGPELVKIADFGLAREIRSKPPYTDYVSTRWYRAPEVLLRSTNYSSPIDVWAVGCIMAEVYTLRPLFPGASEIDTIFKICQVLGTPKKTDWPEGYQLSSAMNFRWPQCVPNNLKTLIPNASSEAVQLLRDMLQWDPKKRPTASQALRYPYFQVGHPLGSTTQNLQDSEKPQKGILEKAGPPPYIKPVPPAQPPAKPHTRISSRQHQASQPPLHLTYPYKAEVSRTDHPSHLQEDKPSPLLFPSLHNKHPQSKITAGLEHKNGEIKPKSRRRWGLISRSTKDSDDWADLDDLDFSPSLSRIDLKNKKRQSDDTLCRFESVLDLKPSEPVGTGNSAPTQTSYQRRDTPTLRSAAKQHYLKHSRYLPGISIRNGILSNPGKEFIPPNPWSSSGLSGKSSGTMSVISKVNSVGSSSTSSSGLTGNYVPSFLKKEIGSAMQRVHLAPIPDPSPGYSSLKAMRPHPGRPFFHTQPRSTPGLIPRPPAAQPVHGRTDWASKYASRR
Chain of FGFR3(G697C) (P22607 whole entry G697C): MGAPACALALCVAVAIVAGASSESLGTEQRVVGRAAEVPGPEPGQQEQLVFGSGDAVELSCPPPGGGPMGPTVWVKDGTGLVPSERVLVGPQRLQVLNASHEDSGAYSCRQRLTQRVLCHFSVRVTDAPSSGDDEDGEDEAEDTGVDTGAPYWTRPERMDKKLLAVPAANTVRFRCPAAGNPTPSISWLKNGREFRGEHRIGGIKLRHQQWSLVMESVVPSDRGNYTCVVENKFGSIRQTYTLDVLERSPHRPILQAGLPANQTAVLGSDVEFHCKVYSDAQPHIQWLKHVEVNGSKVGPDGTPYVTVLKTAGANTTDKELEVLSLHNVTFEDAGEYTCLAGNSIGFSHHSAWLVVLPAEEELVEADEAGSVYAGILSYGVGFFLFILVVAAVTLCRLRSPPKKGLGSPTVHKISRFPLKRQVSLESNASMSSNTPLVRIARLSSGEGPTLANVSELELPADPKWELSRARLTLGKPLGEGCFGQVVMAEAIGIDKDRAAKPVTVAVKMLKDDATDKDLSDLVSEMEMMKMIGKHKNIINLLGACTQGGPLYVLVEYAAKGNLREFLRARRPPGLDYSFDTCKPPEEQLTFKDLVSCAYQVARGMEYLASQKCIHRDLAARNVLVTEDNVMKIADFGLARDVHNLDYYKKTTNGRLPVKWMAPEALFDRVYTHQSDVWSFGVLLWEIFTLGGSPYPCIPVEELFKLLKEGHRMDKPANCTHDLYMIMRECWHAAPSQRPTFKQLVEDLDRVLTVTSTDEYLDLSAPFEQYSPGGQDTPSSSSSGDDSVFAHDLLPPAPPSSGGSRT
T4 sequence (P11802 whole entry): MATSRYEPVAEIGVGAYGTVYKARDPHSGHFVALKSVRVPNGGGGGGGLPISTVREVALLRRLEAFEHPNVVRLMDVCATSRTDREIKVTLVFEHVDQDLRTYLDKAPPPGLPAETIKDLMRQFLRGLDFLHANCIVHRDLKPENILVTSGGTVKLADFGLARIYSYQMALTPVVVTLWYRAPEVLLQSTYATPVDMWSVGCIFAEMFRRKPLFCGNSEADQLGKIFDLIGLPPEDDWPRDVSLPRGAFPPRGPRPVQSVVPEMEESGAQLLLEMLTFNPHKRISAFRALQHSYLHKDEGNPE
T4 sequence (P24385 whole entry partner): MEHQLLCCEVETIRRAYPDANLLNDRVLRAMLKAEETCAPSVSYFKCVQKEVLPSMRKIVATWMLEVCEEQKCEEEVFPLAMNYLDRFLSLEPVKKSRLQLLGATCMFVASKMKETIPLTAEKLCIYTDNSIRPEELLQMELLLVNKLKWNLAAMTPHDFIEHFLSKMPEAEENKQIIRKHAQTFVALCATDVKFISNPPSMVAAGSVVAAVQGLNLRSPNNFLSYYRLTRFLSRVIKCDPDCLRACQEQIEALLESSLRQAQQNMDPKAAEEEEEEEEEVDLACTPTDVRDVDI
Chain of CLK2 (P49760 whole entry): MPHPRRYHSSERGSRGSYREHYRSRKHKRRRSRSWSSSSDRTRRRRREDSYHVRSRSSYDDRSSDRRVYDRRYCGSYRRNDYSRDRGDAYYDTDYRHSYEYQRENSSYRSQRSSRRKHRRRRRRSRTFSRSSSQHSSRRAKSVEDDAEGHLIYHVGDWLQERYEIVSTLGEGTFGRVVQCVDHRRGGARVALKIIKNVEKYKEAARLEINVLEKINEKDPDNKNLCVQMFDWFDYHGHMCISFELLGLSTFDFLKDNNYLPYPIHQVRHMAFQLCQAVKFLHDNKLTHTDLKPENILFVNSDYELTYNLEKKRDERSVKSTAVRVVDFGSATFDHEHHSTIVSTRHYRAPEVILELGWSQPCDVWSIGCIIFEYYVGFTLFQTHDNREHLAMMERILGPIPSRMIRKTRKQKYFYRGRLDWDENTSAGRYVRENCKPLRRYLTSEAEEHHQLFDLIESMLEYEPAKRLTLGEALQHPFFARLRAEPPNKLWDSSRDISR
Chain of CSNK1A1 (P48729 whole entry): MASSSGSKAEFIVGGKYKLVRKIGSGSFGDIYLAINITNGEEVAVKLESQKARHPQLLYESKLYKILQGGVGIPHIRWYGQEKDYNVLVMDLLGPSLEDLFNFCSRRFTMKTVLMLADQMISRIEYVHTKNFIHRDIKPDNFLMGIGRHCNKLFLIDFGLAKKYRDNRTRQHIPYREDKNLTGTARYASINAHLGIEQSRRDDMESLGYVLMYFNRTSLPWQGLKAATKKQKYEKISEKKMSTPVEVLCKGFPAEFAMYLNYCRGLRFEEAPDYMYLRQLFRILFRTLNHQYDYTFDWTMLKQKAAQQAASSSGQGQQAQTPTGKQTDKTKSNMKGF

On to `COc1ccc(-c2cnccc2-c2cnc(NC(=O)C(C)C)s2)c(C(F)(F)F)c1` [CRT0105446, N-{5-[3-(4-Methoxy-2-trifluoromethyl-phenyl)-pyridin-4-yl]-hiazol-2-yl}-isobutyramide], for which the remaining binding at 10 µM in assay [1] was 100%; on ACVR1B, 82%; on ASK1, 100%; on BMPR1B, 92%; at CDK11, 34%; on CDK4-cyclinD1, 20%. The remaining binding at 10 µM worked out at 100% on CDKL5; 78% at CLK2; 100% on CSNK1A1; 100% on CTK; 87% at EPHA3; 86% on EPHA6. In addition, the remaining binding at 10 µM at FGFR3(G697C) came to 93%; at FRK, 98%; on GRK7, 58%; on ICK, 18%; on KIT(D816H), 89%; on MYLK2, 49%. The remaining binding at 10 µM on PRKR was found to be 81%; on RET(V804M) it was 68%; on ROS1, 100%; in assay [2], 37%; at SNRK it was 81%.
Take `Cc1ccc(-c2cnccc2-c2cnc(Nc3ccc(O)cc3)s2)c(Cl)c1` [CRT0105950, 4-{5-[3-(2-Chloro-4-methyl-phenyl)-pyridin-4-yl]-thiazol-2-ylamino}-phenol]: the remaining binding at 10 µM is 82% in [1]; 76% on ACVR1B; 100% at ASK1; 29% on BMPR1B; 2.3% at CDK11; 3.7% on CDK4-cyclinD1. Also, the remaining binding at 10 µM at CDKL5 came to 99%; at CLK2 it was 0.45%; at CSNK1A1 it was 88%; on CTK, 100%; on EPHA3, 71%; on EPHA6 it was 30%. Besides, the remaining binding at 10 µM at FGFR3(G697C) was determined as 7.2%; on FRK, 59%; at GRK7, 16%; at ICK, 19%; on KIT(D816H), 46%; at MYLK2 it was 49%. In addition, the remaining binding at 10 µM at PRKR worked out at 53%; at RET(V804M) it was 3.4%; on ROS1 it was 100%; in assay [2], 0.1%; on SNRK it was 100%.

Values taken from PMC4770715, “LIM kinase inhibitors disrupt mitotic microtubule organization and impair tumor cell proliferation” (Oncotarget, 2015).
